According to patent US20040087498A1, “Modified factor VII” (Novo Nordisk Health Care AG, priority 1991, published 2004):

Experiments:
[1] = system: tissue factor preparation (saline extract of baboon brain); test: Clotting assay in normal baboon plasma with baboon brain tissue factor; type: biochemical
Experimental: The samples were mixed and briefly incubated at 37° C. The samples were added to an Electra 800 Automatic Coagulation Timer (Medical Laboratories Automation, Pleasantville, N.Y.). […] A tissue factor preparation was made as a saline extract of baboon brain from freshly frozen brain tissue and characterized for its ability to initiate coagulation in baboon plasma. A concentration of tissue factor that gave a clotting time of about 40 seconds was selected.

[2] = system: intimal lesion development in femoral arteries; test: Morphometry of intima and media after balloon angioplasty in atherosclerotic rabbits; type: in vivo; settings: rabbit femoral artery, three weeks post-angioplasty; 1 mg/kg bolus + 50 μg/kg/hr for 3 days
Experimental: DEGR-FVIIa was evaluated for its ability to modulate lesion development following balloon angioplasty in New Zealand White (NZW) atherosclerotic rabbits. This animal model has been well characterized and has proven to be a good model for evaluating anti-thrombotic compounds on vascular lesion development (Gimple et al., Circulation 86:1536-1546 (1992), and Rogosta et al., Circulation 89:1262-1271 (1994)). The animal model used to evaluate DEGR-FVIIa is essentially as described by Ragosta, ibid.
Anesthesia was induced in rabbits with 5 mg/kg xylazine and 35 mg/kg ketamine by intramuscular injection. The proximal femoral arteries were exposed by cutdown below the inguinal ligament with proximal and distal ligatures. The isolated segments were cannulated with 27 gauge needles. A vent was created by needle puncture. The isolated segments were flushed with saline to clear residual blood, and desiccated by air infused at a rate of 80 ml/min for 8 minutes. Following air-drying, the isolated segments were again flushed with saline and the ligatures removed. Hemostasis was maintained with non-occlusive local pressure. The segments were demarcated with metal clips. Local spasm was treated with Xylocaine 1% locally. The day following surgery, the animals were placed on 1% cholesterol and 6% peanut oil diet for one month until balloon angioplasty. […]

[3] = system: platelet accumulation at sites of arterial thrombosis; test: Platelet accumulation on endarterectomized baboon aorta in an extracorporeal shunt; type: in vivo
Description: A model of aortic endarterectomy was utilized in baboons, essentially as described by Lumsden et al. (Blood 81:1762-1770 (1993)). A section of baboon aorta 1-2 cm in length was removed, inverted and scraped to remove the intima of the artery and approximately 50% of the media. The artery was reverted back to its correct orientation, cannulated on both ends and placed into an extracorporeal shunt in a baboon, thereby exposing the mechanically injured artery to baboon blood via the shunt. Just prior to opening of the shunt to the circulating blood, ^111In-labeled autologous platelets were injected intravenously into the animal. The level of platelet accumulation at the site of the injured artery was determined by real-time gamma camera imaging.
The injured arteries were measured continuously for 60 minutes. […] At a 1.0 mg/kg bolus injection, approximately 90% of platelet accumulation was inhibited at 1 hour post drug administration.

“DEGR-Factor VIIa: Recombinant human Factor VIIa with its active site derivatized by Dansyl-L-Glu-Gly-Arg-chloromethyl Ketone (DEGRck)” showed a Clotting time ([1]; 0.5 μg/ml plasma) of 46.2 s, a Clotting time ([1]; 1.0 μg/ml plasma) of 50.8 s and a Clotting time ([1]; 2.5 μg/ml plasma) of 64.5 s. It also gave a Clotting time ([1]; 5.0 μg/ml plasma) of 108.1 s, a Clotting time ([1]; 10.0 μg/ml plasma) of 158.4 s and an Intima [2] of 0.438 mm2. For the same substance, the Media [2] was 0.329 mm2, the platelet accumulation ([3]; baboon, 0.005 mg/kg bolus injection) was “inhibited platelet accumulation” and the “inhibition of platelet accumulation” value ([3]; baboon, 1.0 mg/kg bolus injection, 1 hour post drug administration) was “approximately 90%”. For the same substance, the “thrombus formation (platelet deposition)” value ([3]; bolus injection, arteries measured over 60 minutes, versus saline-treated controls) was “significantly inhibited the development of platelet-rich thrombi”.
